{"source": "patent US4370336A", "about": "“3,5-Disubstituted-1H-1,2,4-triazole derivatives as antifertility agents” (priority 1981, dated 1983)", "key": {"[1]": {"test_system": "female Sprague-Dawley rats", "experiment": "anti-reproductive activity in rats, subcutaneous", "assay_type": "in vivo, Sprague-Dawley rat", "conditions": "Rattus norvegicus, sc; for responders at 20 mg/kg: 384 h, 20 mg/kg s.c. for five days from day 6 of pregnancy, sesame oil, autopsy day 16, read-out: reduction of live fetuses (share of treated rats)", "description": "(§1) Representative experiments for assessing antifertility activity were carried out with female Syrian golden hamsters weighing 100 to 130 g. The animals were mated and the presence of sperm in the vagina was taken as evidence of mating. […] Pregnancy was later confirmed at the time of autopsy by presence of fetuses or implantation sites in the uterus. Even if an animal aborts the fetus, implantation scars still remain as evidence that the animal has been pregnant.\n(§2) The animals were autopsied on day 14 of pregnancy and the uteri were examined for evidence of pregnancy (implantation sites, fetal resorptions or live fetuses), hemorrage, and evidence of abnormalities of the uterus, placenta or fetuses.\nThe same criteria and experimental conditions as above were also applied when the anti-reproductive activity of the compounds of the invention was investigated in other animal species such as, for instance, rats, dogs, monkeys and baboons. In representative experiments, female Sprague-Dawley rats weighing from 200 to 300 g. were treated subcutaneously with a dosage of 20 mg/kg of the compound to be tested, dissolved in sesame oil, for five consecutive days starting from day 6 of pregnancy."}, "hamsters": {"test_system": "hamsters", "experiment": "antifertility activity in hamsters by oral route", "assay_type": "in vivo, hamster", "conditions": "Mesocricetus auratus; for inhibition in vivo at 10 mg/kg: oral dosage of 10 mg/kg, read-out: reduction of live fetuses; for ED50: po, absence of live fetuses in 50% of the animals", "description": "as §1, §2\nThe experiments for assessing this property were carried out on hamsters following the same procedure as above, with the obvious exception that the compounds were administered orally instead of subcutaneously."}, "[2]": {"test_system": "female Syrian golden hamsters", "experiment": "post-coital-post-implantation antifertility activity in hamsters, subcutaneous", "assay_type": "in vivo, Syrian golden hamster", "conditions": "for ED50: Mesocricetus auratus, sc", "description": "as §1, §2"}, "[3]": {"conditions": "hamsters, 100% activity (absence of live fetuses) in 50% of the animals, read-out: ED50"}}, "note": "Read-outs that look alike come from different tables or passages of the source.", "data": [{"smiles": "COc1cccc(-c2n[nH]c(-c3ccc(C)cc3C)n2)c1", "note": "[Example 26, 5-(2,4-Dimethylphenyl)-3-(m-methoxyphenyl)-1H-1,2,4-triazole]", "values": [{"measurement": "responders at 20 mg/kg", "setting": "[1]", "value": "≥ 60", "unit": "%"}, {"measurement": "inhibition in vivo at 10 mg/kg", "setting": "hamsters", "value": "~60", "unit": "%"}, {"measurement": "ED50", "setting": "[2]; [3]", "value": 0.04, "unit": "mg/kg"}]}, {"smiles": "COc1cccc(-c2n[nH]c(-c3ccccc3C)n2)c1", "note": "[Example 1, 3-(m-Methoxyphenyl)-5-(o-tolyl)-1H-1,2,4-triazole]", "values": [{"measurement": "responders at 20 mg/kg", "setting": "[1]", "value": "≥ 60", "unit": "%"}, {"measurement": "ED50", "setting": "[1]; absence of live fetuses in 50% of the animals", "value": 1, "unit": "mg/kg"}, {"measurement": "inhibition in vivo at 10 mg/kg", "setting": "hamsters", "value": "~60", "unit": "%"}, {"measurement": "ED50", "setting": "hamsters", "value": 5, "unit": "mg/kg"}, {"measurement": "ED50", "setting": "[2]; [3]", "value": 0.08, "unit": "mg/kg"}]}, {"smiles": "C=CCOc1cccc(-c2n[nH]c(-c3ccccc3CC)n2)c1", "note": "[Example 13, 3-(m-Allyloxyphenyl)-5-(o-ethylphenyl)-1H-1,2,4-triazole]", "values": [{"measurement": "ED50", "setting": "[2]; [3]", "value": 0.1, "unit": "mg/kg"}]}, {"smiles": "CCc1ccccc1-c1nc(-c2cccc(F)c2)n[nH]1", "note": "[Example 18, 5-(o-Ethylphenyl)-3-(m-fluorophenyl)-1H-1,2,4-triazole]", "values": [{"measurement": "responders at 20 mg/kg", "setting": "[1]", "value": "≥ 60", "unit": "%"}, {"measurement": "inhibition in vivo at 10 mg/kg", "setting": "hamsters", "value": "~60", "unit": "%"}, {"measurement": "ED50", "setting": "[2]; [3]", "value": 0.4, "unit": "mg/kg"}]}, {"smiles": "Cc1cc(Cl)ccc1-c1nc(-c2ccccc2)n[nH]1", "note": "[Example 29, 5-(4-Chloro-2-methylphenyl)-3-phenyl-1H-1,2,4-triazole]", "values": [{"measurement": "responders at 20 mg/kg", "setting": "[1]", "value": "≥ 60", "unit": "%"}, {"measurement": "inhibition in vivo at 10 mg/kg", "setting": "hamsters", "value": "~60", "unit": "%"}, {"measurement": "ED50", "setting": "[2]; [3]", "value": 0.14, "unit": "mg/kg"}]}, {"smiles": "C=CCOc1cccc(-c2n[nH]c(-c3ccccc3C)n2)c1", "note": "[Example 10, 3-(m-Allyloxyphenyl)-5-(o-tolyl)-1H-1,2,4-triazole]", "values": [{"measurement": "ED50", "setting": "[2]; [3]", "value": 0.25, "unit": "mg/kg"}]}, {"smiles": "COc1cccc(-c2n[nH]c(-c3ccc(OC)cc3C)n2)c1", "note": "[Example 34, 5-(4-Methoxy-2-methylphenyl)-3-(m-methoxyphenyl)-1H-1,2,4-triazole]", "values": [{"measurement": "ED50", "setting": "[2]; [3]", "value": 0.2, "unit": "mg/kg"}]}, {"smiles": "COc1cccc(-c2n[nH]c(-c3cc(Cl)ccc3C)n2)c1", "note": "[Example 32, 5-(5-Chloro-2-methylphenyl)-3-(m-methoxyphenyl)-1H-1,2,4-triazole]", "values": [{"measurement": "responders at 20 mg/kg", "setting": "[1]", "value": "≥ 60", "unit": "%"}, {"measurement": "inhibition in vivo at 10 mg/kg", "setting": "hamsters", "value": "~60", "unit": "%"}, {"measurement": "ED50", "setting": "[2]; [3]", "value": 0.35, "unit": "mg/kg"}]}, {"smiles": "CCOc1cccc(-c2n[nH]c(-c3ccccc3C)n2)c1", "note": "[Example 9, 3-(m-Ethoxyphenyl)-5-(o-tolyl)-1H-1,2,4-triazole]", "values": [{"measurement": "ED50", "setting": "[2]; [3]", "value": 0.07, "unit": "mg/kg"}]}, {"smiles": "COc1ccccc1-c1n[nH]c(-c2ccccc2C)n1", "note": "[Example 4, 3-(o-Methoxyphenyl)-5-(o-tolyl)-1H-1,2,4-triazole]", "values": [{"measurement": "responders at 20 mg/kg", "setting": "[1]", "value": "≥ 60", "unit": "%"}, {"measurement": "inhibition in vivo at 10 mg/kg", "setting": "hamsters", "value": "~60", "unit": "%"}, {"measurement": "ED50", "setting": "[2]; [3]", "value": 0.5, "unit": "mg/kg"}]}, {"smiles": "CCc1ccccc1-c1nc(-c2ccc(OC)cc2)n[nH]1", "note": "[Example 36, 5-(o-Ethylphenyl)-3-(p-methoxyphenyl)-1H-1,2,4-triazole]", "values": [{"measurement": "ED50", "setting": "hamsters", "value": 5, "unit": "mg/kg"}, {"measurement": "ED50", "setting": "[2]; [3]", "value": 0.15, "unit": "mg/kg"}]}, {"smiles": "CCc1ccccc1-c1nc(-c2ccc(OC)c(OC)c2)n[nH]1", "note": "[Example 37, 5-(o-Ethylphenyl)-3-(3,4-dimethoxyphenyl)-1H-1,2,4-triazole]", "values": [{"measurement": "ED50", "setting": "[2]; [3]", "value": 0.05, "unit": "mg/kg"}]}, {"smiles": "COc1cccc(-c2n[nH]c(-c3ccc(Cl)cc3C)n2)c1", "note": "[Example 30, 5-(4-Chloro-2-methylphenyl)-3-(m-methoxyphenyl)-1H-1,2,4-triazole]", "values": [{"measurement": "responders at 20 mg/kg", "setting": "[1]", "value": "≥ 60", "unit": "%"}, {"measurement": "inhibition in vivo at 10 mg/kg", "setting": "hamsters", "value": "~60", "unit": "%"}, {"measurement": "ED50", "setting": "hamsters", "value": 5, "unit": "mg/kg"}, {"measurement": "ED50", "setting": "[2]; [3]", "value": 0.04, "unit": "mg/kg"}]}, {"smiles": "Cc1ccc(-c2nc(-c3ccccc3)n[nH]2)c(C)c1", "note": "[Example 25, 5-(2,4-Dimethylphenyl)-3-phenyl-1H-1,2,4-triazole]", "values": [{"measurement": "responders at 20 mg/kg", "setting": "[1]", "value": "≥ 60", "unit": "%"}, {"measurement": "inhibition in vivo at 10 mg/kg", "setting": "hamsters", "value": "~60", "unit": "%"}, {"measurement": "ED50", "setting": "[2]; [3]", "value": 0.2, "unit": "mg/kg"}]}, {"smiles": "c1ccc(-c2n[nH]c(-c3ccccc3)n2)cc1", "note": "[3,5-diphenyl-1H-1,2,4-triazole, reference compound]", "values": [{"measurement": "ED50", "setting": "[2]", "value": 6, "unit": "mg/kg"}, {"measurement": "antifertility activity relative to the compounds of the invention", "setting": "[2]; hamsters, 10 mg/kg s.c. daily for 5 days (days 4-8 of pregnancy), comparison", "value": "much less active"}]}, {"smiles": "CCOc1cccc(-c2n[nH]c(-c3ccccc3CC)n2)c1", "note": "[Example 35, 3-(m-Ethoxyphenyl)-5-(o-ethylphenyl)-1H-1,2,4-triazole]", "values": [{"measurement": "ED50", "setting": "hamsters", "value": 3, "unit": "mg/kg"}, {"measurement": "ED50", "setting": "[2]; [3]", "value": 0.04, "unit": "mg/kg"}]}, {"smiles": "CCc1ccccc1-c1nc(-c2ccc3c(c2)OCO3)n[nH]1", "note": "[Example 22, 5-(o-Ethylphenyl)-3-(3,4-methylenedioxyphenyl)-1H-1,2,4-triazole]", "values": [{"measurement": "responders at 20 mg/kg", "setting": "[1]", "value": "≥ 60", "unit": "%"}, {"measurement": "inhibition in vivo at 10 mg/kg", "setting": "hamsters", "value": "~60", "unit": "%"}, {"measurement": "ED50", "setting": "hamsters", "value": 3, "unit": "mg/kg"}, {"measurement": "ED50", "setting": "[2]; [3]", "value": 0.03, "unit": "mg/kg"}]}]}
